US8383656B2, “Thiazolidinedione energy restriction-mimetic agents” (The Ohio State University Research Foundation, priority 2009, dated 2013)
Read-outs that look alike come from different tables or passages of the source.

Legend:
[1] = tested on: LPS-stimulated IL-6 production in THP-1 macrophages; experiment: ELISA of LPS-stimulated IL-6 production in THP-1 macrophages; format: cell-based, human; conditions: 10 μM; for first-tier screening result (AMPK/mTOR activation status and IL-6/IL-6 receptor signaling): LPS-stimulated THP-1 macrophages; for inhibition at 10 µM: Homo sapiens, 6 h, LPS-stimulated THP-1, read-out: inhibition of IL-6 production
Procedure: Cells and cell culture. THP-1 monocytic cells were purchased from the American Type Culture Collection (Rockville, Md.), and maintained with L-glutamine-containing RPMI 1640 supplemented with 10% fetal bovine serum (FBS), 0.25% glucose, 0.01% sodium pyruvate, 50 μM 2-mercaptoethanol, and 0.1 ml/ml penicillin/streptomycin/L-glutamine. Differentiation of THP-1 monocytes into macrophages was carried out by exposure to PMA (50 nM) in the aforementioned RPMI 1640 medium for 24 h. Colon-26 (C-26) adenocarcinoma cells were provided by a researcher at The Ohio State University. The C-26 cells were maintained in RPMI 1640 medium supplemented with 5% FBS and 1% penicillin/streptomycin.
ELISA. IL-6 release by differentiated THP-1 macrophages in response to 10 ng/ml of LPS was analyzed by using the IL-6 ELISA kit (Cayman Chemical Co.; Ann Arbor, Mich.) according to the manufacturer's instruction in triplicate. The effect of each test compound on LPS-stimulated IL-6 release is presented as percent inhibition and was calculated using the following formula: percentage inhibition=100%×{1−[(O.D. of sample−O.D. of control)/(O.D. of LPS−O.D. of control)]}.

[2] = tested on: LNCaP prostate cancer cells; experiment: MTT cell viability assay, LNCaP cells; format: cell-based; conditions: Homo sapiens
Procedure: The compounds were tested for their ability to decrease LNCaP prostate cancer cell viability as measured by the 3-(4,5-dimethylthiazol-2-yl)-2,5-diphenyltetrazolium bromide) (MTT) assay.
(§1) Cell viability was determined using the 3-(4,5-dimethylthiazol-2-yl)-2,5-diphenyltetrazolium bromide) (MTT) assay. LNCaP and MCF-7 cells were seeded in 96-well plates (5000 cells/well) and incubated in their respective culture media supplemented with 10% FBS for 24 h. […] Drug-containing medium was then replaced with 1×MTT (0.5 mg/mL in RPMI 1640), followed by incubation at 37° C. for 2 h. After removal of medium, the reduced MTT dye was solubilized in 200 μL/well DMSO, and absorbances were measured at 570 nm.

[3] = tested on: MCF-7 breast cancer cells; experiment: MTT cell viability assay, MCF-7 cells; format: cell-based; conditions: Homo sapiens, MCF7, 72 h, 10% FBS-supplemented medium, read-out: IC50 in inhibiting the viability of MCF-7 breast cancer cells
Procedure: as §1

[4] = tested on: Sirt1 gene expression in LNCaP cells; experiment: Time course of Sirt1 expression in LNCaP cells (Western blot/RT-PCR); format: cell-based; conditions: OSU-CG12 10 μM, 2-DG 10 mM
Procedure: Total RNA was isolated from drug-treated LNCaP cells using the RNeasy mini kit (Qiagen, Valencia, Calif.), and then reverse-transcribed to cDNA using the Omniscript RT Kit (Qiagen) according to manufacturer's instructions. PCR products were separated electrophoretically in 1% agarose gels and visualized by ethidium bromide staining.
Transfections were performed by electroporation using Nucleofector kit R of the Amaxa Nucleofector system (Amaxa Biosystems, Cologne, Germany). LNCaP cells were transfected with the following plasmids or siRNA: WT- and H363Y-Flag-Sirt1 (DN-Sirt1), WT- and K45R-Myc-AMPK (DN-AMPK), GFP-LC3, TSC2 shRNA, and DDIT3 siRNA (GADD153). […] For the fluorescent microscopic analysis, LNCaP cells transfected with the GFP-LC3 expression plasmid or with scrambled or TSC2 shRNA were treated as indicated for 36 h. After cells were fixed with 3.7% formaldehyde at room temperature for 20 min, nuclear counterstaining was performed using a 4,6-diamidino-2-phenylindole (DAPI)-containing mounting medium (Vector Laborotaries, Burlingame, Calif.) before examination. Images were observed using a Nikon microscope (Eclipse TE300).

glucose metabolism = experiment: In vitro potency in blocking glucose metabolism; format: cell-based
[5] = tested on: normal prostate epithelial cells (PrECs)
Procedure: LNCaP hormone-responsive prostate cancer cells and MCF-7 ERα-positive breast cancer cells were obtained from the American Type Culture Collection (Manassas, Va.) and maintained with 10% fetal bovine serum (FBS)-supplemented RPMI 1640 medium and F12/DMEM medium, respectively. Nonmalignant prostate epithelial cells (PrEC) were maintained in prostate epithelial growth medium (PrEGM) (Lonza Inc., Walkersville, Md.). All cells were cultured at 37° C. in a humidified incubator containing 5% CO2. […] Glucose-free RPMI 1640 medium was purchased from Invitrogen (Carlsbad, Calif.). 2-DG, resveratrol, 3-methyladenine (3-MA), nicotinamide and splitomicin were purchased from Sigma-Aldrich (St. Louis, Mo.). The AMPK inhibitor Compound C and cycloheximide were obtained from Calbiochem (San Diego, Calif.). These agents were added to medium with a final DMSO concentration of 0.1%.
as §1

cancer cells = conditions: reported in literature; cited from earlier work
[6] = tested on: [3H]-2-DG uptake into LNCaP cells; experiment: Glucose uptake assay ([3H]-2-DG); format: cell-based; conditions: OSU-CG12 at 5 and 10 μM, resveratrol at 50 and 100 μM, P<0.05
Procedure: After washing cells with PBS, glucose uptake was initiated by addition of 1 mL of PBS containing 1 μCi/mL [^3H]-2-DG (Perkin Elmer, Waltham, Mass.) and […] nonradioactive 2-DG. After 5 min, glucose uptake was terminated by extensive washing with PBS, and cells were solubilized in 0.1% SDS buffer. Aliquots were taken for measurements of radioactivity using a scintillation counter LS6500 (Beckman).

[7] = LNCaP, MTT, 72 h, 10% FBS-supplemented medium, read-out: IC50 in inhibiting the viability of LNCaP prostate cancer cells

Row | Structure (SMILES) | first-tier screening result (AMPK/mTOR activation status and IL-6/IL-6 receptor signaling) [1] | inhibition at 10 µM [1] | IC50 [2, 7] | IC50 [3] | further results
1 | CC1(CN2C(=O)SC(=Cc3ccc(NS(=O)(=O)c4ccc([N+](=O)[O-])cc4)cc3)C2=O)CCCCC1 [Compound 54, N-{4-[3-(1-Methyl-cyclohexylmethyl)-2,4-dioxo-thiazolidin-5-ylidenemethyl]-phenyl}-4-nitro-benzenesulfonamide] | active | > 80% | – | – | –
2 | Cc1c(C)c2c(c(C)c1OCCCC#N)CCC(C)(COc1ccc(C=C3SC(=O)NC3=O)cc1Br)O2 (stereo not drawn) [Compound 21, 4-{2-[2-Bromo-4-(2,4-dioxo-thiazolidin-5-ylidenemethyl)-phenoxymethyl]-2,5,7,8-tetramethyl-chroman-6-yloxy}-butyronitrile] | active | > 80% | – | – | –
3 | COc1ccc(S(=O)(=O)Nc2ccc(C=C3SC(=O)N(CC4(C)CCCCC4)C3=O)cc2)cc1 [Compound 49, 4-Methoxy-N-{4-[3-(1-methyl-cyclohexylmethyl)-2,4-dioxo-thiazolidin-5-yli-denemethyl]-phenyl}-benzenesulfonamide] | active | – | – | – | –
4 | CCOc1c(C)c(C)c2c(c1C)CCC(C)(COc1ccc(C=C3SC(=O)NC3=O)cc1Br)O2 (stereo not drawn) [Compound 8, 5-[3-Bromo-4-(6-ethoxy-2,5,7,8-tetramethyl-chroman-2-ylmethoxy)-benzylidene]-thiazolidine-2,4-dione] | active | > 80% | – | – | –
5 | CCCN1C(=O)SC(=Cc2ccc(O)c(C(F)(F)F)c2)C1=O [Compound 44, 5-(4-Hydroxy-3-trifluoromethyl-benzylidene)-3-propyl-thiazolidine-2,4-dione] | – | > 80% | – | – | –
6 | O=CC[C@@H](O)[C@H](O)[C@H](O)CO [2-DG, 2-deoxyglucose] | – | – | 5500 µM | 4200 µM | duration of transient transcriptional activation of Sirt1 gene expression [4]: 4 h; IC50 (glucose metabolism): ≥ 4000 µM; cytotoxicity to normal prostate epithelial cells (PrECs) [5]: low cytotoxicity; dose range inducing autophagy in cancer cells (cancer cells): 5 to 25 mM
7 | Oc1ccc(C=Cc2cc(O)cc(O)c2)cc1 [resveratrol] | – | – | 110 µM | 60 µM | IC50 ([2]; summary over LNCaP and MCF-7 cells, read-out: IC50 in suppressing cancer cell growth): 60 to 110 µM; inhibition of glucose uptake [6]: significantly inhibit glucose uptake; IC50 (glucose metabolism): ≥ 50 µM; cytotoxicity to normal prostate epithelial cells (PrECs) [5]: low cytotoxicity; dose range inducing autophagy in cancer cells (cancer cells): 0.05 to 0.1 mM
8 | Cc1c(C)c2c(c(C)c1O)CCC(C)(COc1ccc(CC3SC(=O)NC3=O)cc1)O2 (stereo not drawn) [troglitazone] | – | – | 70 µM | 70 µM | –
9 | CCCCOc1c(C)c(C)c2c(c1C)CCC(C)(COc1ccc(C=C3SC(=O)NC3=O)cc1OC)O2 (stereo not drawn) [Compound 12, 5-[4-(6-Butoxy-2,5,7,8-tetramethyl-chroman-2-ylmethoxy)-3-methoxy-benzylidene]-thiazolidine-2,4-dione] | active | > 80% | – | – | –
10 | C=CCOc1c(C)c(C)c2c(c1C)CCC(C)(COc1ccc(/C=C3\SC(=O)NC3=O)cc1Br)O2 (stereo not drawn) [STG28] | – | – | 12 µM | 11 µM | –
